Source: patent US6770133B2, “Stable crystal of thiazolidinedione derivative and process for producing the same” (Kyorin Pharmaceutical Co., Ltd., priority 2000, dated 2004)

Assays:
[1] = M. Nomura et al, Bioorg. Med. Chem. Lett., 9 (1999) 533-538; cited from earlier work
[2] = Thermal analysis (thermal stability of the crystals); assay type: physicochemical
Description: Using the thermal analysis apparatus (Rigaku Denki; TAS-200), the thermal stability of the crystals were examined.

[3] = Hygroscopicity of the crystals; assay type: physicochemical
[4] = thermal analysis apparatus Rigaku Denki TAS-200

COc1ccc(CC2SC(=O)NC2=O)cc1C(=O)NCc1ccc(C(F)(F)F)cc1 (stereo not drawn) [KRP-297, 5-[(2,4-dioxothiazolidin-5-yl)methyl]-2-methoxy-N-[[4-(trifluoromethyl)phenyl]methyl]benzamide]
glucose-lowering activity [1]: very excellent glucose-lowering activity

COc1ccc(CC2SC(=O)NC2=O)cc1C(=O)NCc1ccc(C(F)(F)F)cc1 (stereo not drawn) [conventional crystals, 5-[(2,4-dioxothiazolidin-5-yl)methyl]-2-methoxy-N-[[4-(trifluoromethyl)phenyl]methyl]benzamide, reference compound]
endothermic peak [2, 4]: 186.3 °C

COc1ccc(CC2SC(=O)NC2=O)cc1C(=O)NCc1ccc(C(F)(F)F)cc1 (stereo not drawn) [novel crystal, 5-[(2,4-dioxothiazolidin-5-yl)methyl]-2-methoxy-N-[[4-(trifluoromethyl)phenyl]methyl]benzamide]
thermal stability compared with the conventional crystal ([2]; conclusion from thermal analysis): more thermally stable
endothermic peak [2, 4]: 196.2 °C
endothermic phenomena observed from (onset) [2, 4]: 194.8 °C
hygroscopicity [3]: no hygroscopicity
